Usually chromatographic logP stands for lipophilicity estimated from chromatographic retention. Low values mean lower lipophilicity, high ones higher lipophilicity.

One data set is described as follows: physchem. Type of data set: physicochemical.
Settings: not given
The procedure:
Measurement of Log P values as provided herein was performed according to EEC directive 79/831 Annex V.A8 by HPLC (High Performance Liquid Chromatography) on reversed phase columns with the following methods: • ^[a]
If more than one Log P value is available within the same method, all the values are given and separated by “+”.
Lambda-max-values were determined using UV-spectra from 200 nm to 400 nm and the peak values of the chromatographic signals
Regarding `Cc1ccc(CC2CON=C(c3cc(Cl)ncc3Oc3cccc(C(F)F)c3)N2)c(C)c1` (racemic) [Compound I-003], the LogP is 4.08^[a].

Consider `Cc1ccc(CC2CON=C(c3cc(Cl)ncc3Oc3cccc(C4CCC4)c3)N2)c(C)c1` (racemic) [Compound I-101], for which the LogP was 5.50^[a].

In the case of `C#Cc1cc(C2=NOCC(Cc3ccc(Br)cc3C)N2)c(Oc2cccc(C(F)(F)F)c2)cn1` (racemic) [Compound I-091], the LogP is 4.19^[a].

In the case of `Cc1ccc(CC2CON=C(c3c(Oc4cccc(C(F)(F)F)c4)cnc(Cl)c3F)N2)c(C)c1` (racemic) [Compound I-062], the LogP was 4.66^[a].

With `Cc1ccc(CC(N)CC(N)=O)c(C)c1` (stereo not shown) [13-09], the LogP was 0.69^[a].

In the case of `Cc1ccc(CC(CON2C(=O)c3ccccc3C2=O)NC(=O)c2cc(Cl)ncc2Br)c(C)c1` (stereo not shown) [Compound 6-02], the LogP is 4.13^[a].

`O=C(NC(CON1C(=O)c2ccccc2C1=O)Cc1ccc(Br)cc1Cl)c1cc(Cl)ncc1Oc1cccc(C2CC2)c1` (stereo not shown) [3-02]: the LogP is 5.75^[a].

Take `Cc1ccc(CC2CON=C(c3cc(Cl)ncc3Oc3cccc(C)c3F)N2)c(C)c1` (racemic) [Compound I-032]: the LogP is 4.59^[a].

Regarding `Cc1ccc(CC2CON=C(c3cc(Cl)ncc3Oc3cccc4c3CCC4)N2)c(C)c1` (racemic) [Compound I-116], the LogP is 5.14^[a].

For the molecule `Cc1ccc(CC(CON2C(=O)c3ccccc3C2=O)NC(=O)c2cc(Cl)ncc2Oc2cccc(Cl)c2)c(C)c1` (stereo not shown) [3-12], the LogP is 5.11^[a].

On to `O=C(O)c1c(Oc2cccc(C(F)(F)F)c2)cnc(Cl)c1F` [Compound 1-01], for which the LogP was 2.28^[a].

On to `FC(F)(F)c1cc(Oc2cnc(Cl)cc2C2=NOCC(Cc3ccc(Cl)cc3Cl)N2)cs1` (racemic) [Compound I-072], for which the LogP was 4.75^[a].

Turning to `Cc1ccc(CC2CON=C(c3cc(Cl)ncc3Oc3ccc(OC(F)(F)F)cc3)N2)c(C)c1` (racemic) [Compound I-120], the LogP was 4.76^[a].

Regarding `COc1cccc(Oc2cnc(Cl)cc2C(=O)O)c1` [Compound 1-09], the LogP is 2.34^[a].

As to `O=C(O)c1c(Oc2cccc(C(F)(F)F)c2)cnc(Cl)c1I` [Compound 1-17], the LogP was 2.49^[a].

With `FC(F)(F)c1cccc(Oc2cnc(Cl)cc2C2=NOCC(C3(c4ccccc4)CC3)N2)c1` (racemic) [Compound I-046], the LogP was 4.21^[a].

Take `Cc1cc(Cl)ccc1CC(CCl)NC(=O)c1cc(Cl)ncc1Br` (stereo not shown) [17-04]: the LogP was 3.98^[a].

In the case of `FC(F)(F)c1cccc(Oc2cnc(Cl)cc2C2=NCC(Cc3ccc(Cl)cc3)N2)c1` (racemic) [Compound I-106], the LogP was 2.45^[a].

Take `FC(F)(F)Sc1cccc(Oc2cnc(Cl)cc2C2=NOCC(Cc3ccc(Cl)cc3Cl)N2)c1` (racemic) [Compound I-090]: the LogP was 5.16^[a].

As to `Cc1cc(C2=NOCC(Cc3ccc(Cl)cc3Cl)N2)c(Oc2cccc(C3CC3)c2)cn1` (racemic) [Compound I-028], the LogP was 4.08^[a].

Take `Cc1ccc(CC2CON=C(c3cc(Cl)ncc3Oc3ccc4c(c3)CCC4)N2)c(C)c1` (racemic) [Compound I-100]: the LogP is 5.16^[a].

Turning to `O=C(NC(CCl)Cc1ccc(C(F)(F)F)cc1Cl)c1cc(Cl)ncc1Oc1cccc(C(F)(F)F)c1` (stereo not shown) [14-09], the LogP is 5.36^[a].

In the case of `Cc1cc(Cl)ccc1CC1CON=C(c2cc(Cl)ncc2Oc2cccc(Cl)c2F)N1` (racemic) [Compound I-083], the LogP was 4.59^[a].

Take `CCc1cc(C2=NOCC(Cc3ccc(C)cc3C)N2)c(Oc2cccc(C3CC3)c2)cn1` (racemic) [Compound I-027]: the LogP is 4.40^[a].

`Cc1ccc(C2(C)NC(c3cc(Cl)ncc3Oc3cccc(C(F)(F)F)c3)=NO2)cc1` (racemic) [Compound I-109]: the LogP is 4.59^[a].

As for `Cc1ccc(CC2CON=C(c3cc(Cl)ncc3Oc3cccc(C4CC4)c3F)N2)c(Cl)c1` (racemic) [Compound I-066], the LogP is 5.04^[a].

For the molecule `CSc1cccc(Oc2cnc(Cl)cc2C2=NOCC(Cc3ccc(C)cc3C)N2)c1F` (stereo not shown) [Compound I-154], the LogP was 4.47^[a].

As for `Fc1c(Cl)cccc1Oc1cnc(Cl)cc1C1=NOCC(Cc2ccc(Cl)cc2Cl)N1` (racemic) [Compound I-102], the LogP is 4.71^[a].

On to `CCN(C)c1cc(C2=NOCC(Cc3ccc(C)cc3Cl)N2)c(Oc2cccc(Cl)c2F)cn1` (racemic) [Compound I-112], for which the LogP was 4.59^[a].

Regarding `FC(F)c1cccc(Oc2cnc(Cl)cc2C2=NOCC(Cc3ccc(Br)cc3Cl)N2)c1` (racemic) [Compound I-004], the LogP is 4.32^[a].

As to `C=CC(C)Nc1c(Cl)ncc(Oc2cccc(C(F)(F)F)c2)c1C1=NOCC(Cc2ccc(C)cc2C)N1` (stereo not shown) [Compound I-131], the LogP was 5.19^[a].

As for `Cc1cccc(Oc2cnc(Cl)cc2C2=NOCC(Cc3ccc(C)cc3C)N2)c1` (racemic) [Compound I-007], the LogP is 4.55^[a].

`FC(F)(F)c1cccc(Oc2cnc(Cl)cc2C2=NOCC(c3ccc4c(c3)CCO4)N2)c1` (racemic) [Compound I-044]: the LogP was 3.57^[a].

Turning to `Cc1ccc(CC(CCl)NC(=NO)c2cc(Cl)nc(F)c2Oc2cccc(C(F)(F)F)c2)c(C)c1` (stereo not shown) [16-06], the LogP is 5.16^[a].

As for `Cc1cccc(Oc2cnc(Cl)cc2C(=O)NC(CON2C(=O)c3ccccc3C2=O)Cc2ccc(C)cc2C)c1` (stereo not shown) [3-07], the LogP was 5.16^[a].

In the case of `CCc1cccc(Oc2cnc(Cl)cc2C2=NOCC(Cc3ccc(Cl)cc3Cl)N2)c1F` (stereo not shown) [Compound I-141], the LogP was 5.16^[a].

As to `Cc1ccc(CC2CON=C(c3cc(C)ncc3Oc3cccc(C(F)F)c3)N2)c(C)c1` (racemic) [Compound I-010], the LogP is 3.41^[a].

Turning to `Cc1cccc(CC2CON=C(c3cc(Cl)ncc3Oc3cccc(Cl)c3F)N2)c1Cl` (stereo not shown) [Compound I-151], the LogP was 4.62^[a].

Consider `Cc1ccc(CC2CON=C(c3cc(Cl)ncc3Oc3cnc4ccccc4c3)N2)c(C)c1` (racemic) [Compound I-093], for which the LogP was 3.65^[a].

Regarding `Cc1ccc(CC(CCl)NC(=O)c2cc(Cl)ncc2Oc2cccc(C(F)(F)F)c2)cc1` (stereo not shown) [14-03], the LogP was 5.00^[a].

Regarding `Cc1ccc(CC2CON=C(c3cc(Cl)ncc3Oc3ccc4c(c3)CC4)N2)c(C)c1` (racemic) [Compound I-036], the LogP is 4.88^[a].

Consider `COc1ccc(C2CON=C(c3cc(Cl)ncc3Oc3cccc(C(F)(F)F)c3)N2)cc1` (racemic) [Compound I-045], for which the LogP is 3.60^[a].

`Cc1ccc(CC2CON=C(c3cc(Cl)ncc3Oc3cccc(Cl)c3F)N2)c(C)c1` (stereo not shown) [Compound I-144]: the LogP was 4.59^[a].

For the molecule `ON=C(NC(CCl)Cc1csc(Cl)c1)c1cc(Cl)ncc1Oc1cccc(C(F)(F)F)c1` (stereo not shown) [16-11], the LogP is 4.48^[a].

As for `Cc1ccc(CC2CON=C(c3cc(Cl)ncc3Oc3cccc(Br)c3)N2)c(C)c1` (racemic) [Compound I-104], the LogP was 4.74^[a].

For the molecule `Cc1ccc(CC2CON=C(c3cc(C)ncc3Oc3cccc(Cl)c3F)N2)c(Cl)c1` (racemic) [Compound I-069], the LogP is 4.07^[a].

In the case of `Fc1c(Oc2cnc(Cl)cc2C2=NOCC(Cc3ccc(Br)cc3Cl)N2)cccc1C1CC1` (racemic) [Compound I-023], the LogP was 5.11^[a].

`O=C(NC(CCl)Cc1csc(C(F)(F)F)c1)c1cc(Cl)ncc1Oc1cccc(C(F)(F)F)c1` (stereo not shown) [14-10]: the LogP was 4.96^[a].

Regarding `Cc1ccc(CC(CON2C(=O)c3ccccc3C2=O)NC(=O)c2cc(Cl)ncc2Oc2cccc(C(F)(F)F)c2)c(C)c1` (stereo not shown) [3-13], the LogP is 5.20^[a].

In the case of `Cc1ccc(CC(CCl)NC(=NO)c2c(Oc3cccc(C(F)(F)F)c3)cnc(Cl)c2F)c(C)c1` (stereo not shown) [16-01], the LogP was 5.74^[a].

As for `CC1ON=C(c2cc(Cl)ncc2Oc2cccc(C(F)(F)F)c2)NC1c1ccc(Cl)cc1` (mixture of isomers) [Compound I-042], the LogP was 4.19^[a].

As to `Cc1cc(Br)ccc1CC1CON=C(c2cc(Cl)ncc2Oc2cccc(C(F)(F)F)c2)N1` (stereo not shown) [Compound I-158], the LogP was 4.81^[a].

In the case of `O=C(O)c1cc(Cl)ncc1Oc1cccc(C(F)F)c1` [Compound 1-10], the LogP was 2.48^[a].

The data set is the same for the next values; noted with them: Table 3, compounds of formula (1); method [a]: LC-UV, acidic range, 0.1% formic acid in water and acetonitrile.
Molecule `COC(=O)c1cc(Cl)ncc1Oc1cccc(C(F)(F)F)c1` [Compound 1-07, methyl 2-chloro-5-[3-(trifluoromethyl)phenoxy]isonicotinate] yielded a chromatographic logP of 3.84.

Staying with this data set, now noted: Table 9, compounds of formula (4a)/(4b); method [a].
`Cc1ccc(CC(CON)NC(=O)c2cc(Cl)ncc2Oc2cccc(C(F)(F)F)c2)c(C)c1` (racemic) [Compound 4-01, N-[(2RS)-1-(aminooxy)-3-(2,4-dimethylphenyl)propan-2-yl]-2-chloro-5-[3-(trifluoromethyl)phenoxy]isonicotinamide] displayed a chromatographic logP of 3.48.

The same data set, now with this note: Table 13, compounds of formula (7); method [a].
In turn, `Cc1ccc(CC2CON=C(c3ccncc3Br)N2)cc1` (racemic) [Compound 7-02, (5RS)-3-(3-bromopyridin-4-yl)-5-(4-methylbenzyl)-5,6-dihydro-4H-1,2,4-oxadiazine] had a chromatographic logP of 2.31.

Still in this data set, the particulars now being: Table 17, compounds of formula (10); method [a]: LC-UV, acidic range, 0.1% formic acid in water and acetonitrile.
In the case of `NC(=NO)c1cc(Cl)ncc1Oc1cccc(C(F)(F)F)c1` [Compound 10-01, 2-chloro-N′-hydroxy-5-[3-(trifluoromethyl)phenoxy]pyridine-4-carboximidamide], the chromatographic logP worked out at 2.41.

The same data set, now with this note: Table 24, compounds of formula (18); method [a].
The molecule `Cc1ccc(CC(CCl)NC(=NO)c2ccncc2Br)cc1` (racemic) [Compound 18-01, 3-bromo-N-[(2RS)-1-chloro-3-(4-methylphenyl)propan-2-yl]-N′-hydroxypyridine-4-carboximidamide] showed a chromatographic logP of 2.78.
